From patent publication US9597407B2, “Targeted antimicrobial moieties” (C3 Jian, Inc., priority 2009, dated 2017)
Entries after “also recorded” stand apart in the source; their conditions may differ.

Experiments:
microorganisms = assay: Morphology, biofilm and growth disruption by peptides (Table 5); assay type: cell-based; parameters: key: A: Peptide aggregates; B: Less hyphal formation; Clumps; Diffuse clumps and small polyps; F: Diffuse growth; H: Thin; I: Growth inhibition; Microcolony formation; Rippled; Small polyps; Thick; W: Halo formation on top, microlonies on bottom
Description: In certain embodiments peptides that induce alterations in phenotype or other biological activities can also be used as antimicrobial effector moieties.

bacteria = assay: Binding of targeting peptides to microorganisms (Table 3); conditions: preferably 1x PBS; for Target(s): microorganism bound by the targeting peptide, binding in aqueous buffers chosen by peptide solubility; for Target(s) (microorganisms bound by the targeting peptide): peptide binding in aqueous buffers that varied depending on peptide solubility

Substance	Organism, effect (microorganisms; E. coli)	Organism, effect (microorganisms; MRSA)	Organism, effect (microorganisms; S. epidermidis)	Target(s) (microorganisms bound by the targeting peptide) (bacteria)	Organism, effect (morphology, biofilm and growth disruption) (microorganisms; S. pneumoniae)	also measured
PF-344 (DERLPEAKAIRNFNGSVMVLGR; Peptide with targeting and/or antimicrobial activity)	E. coli (A)	–	–	–	–	Target(s) (bacteria): B. subtilis; also recorded: C. jejuni
PF-350 (LAVILRAIVY; Peptide with targeting and/or antimicrobial activity)	E. coli (C)	MRSA (C)	S. epidermidis (C)	–	–	Target(s) (bacteria): S. epidermidis; also recorded: E. coli; also recorded: E. faecalis; also recorded: C. jeikeium; also recorded: C. jejuni
PF-395 (YCVPLGNMGNMNNKIW; Peptide with targeting and/or antimicrobial activity)	E. coli (R)	MRSA (C)	S. epidermidis (C)	S. epidermidis; also recorded: E. coli; also recorded: P. aeruginosa; also recorded: S. pneumoniae; also recorded: E. faecalis; also recorded: C. jeikeium; also recorded: C. jejuni	–	–
PF-396 (LIYTILASLGVLTVLQAILGREPKAVKA; Peptide with targeting and/or antimicrobial activity)	E. coli (C)	MRSA (C)	S. epidermidis (S)	S. epidermidis; also recorded: E. coli; also recorded: P. aeruginosa; also recorded: C. albicans; also recorded: E. faecalis; also recorded: C. jeikeium	–	Organism, effect (microorganisms; E. faecalis): E. faecalis (C)
PF-397 (VEDLMEDLNA; Peptide with targeting and/or antimicrobial activity)	–	–	S. epidermidis (C)	S. epidermidis and MRSA and S. pneumoniae and E. faecalis and C. jejuni	–	–
PF-401 (YWLSRVTTGHSFAFEKPVPLSLTIK; Peptide with targeting and/or antimicrobial activity)	E. coli (R)	MRSA (C)	S. epidermidis (C)	S. epidermidis and E. coli and P. aeruginosa and MRSA and E. faecalis and C. jejuni	–	Organism, effect (microorganisms; E. faecalis): E. faecalis (C)
PF-403 (LLSTEQLLKYYDGETFDGFQLPSNE; Peptide with targeting and/or antimicrobial activity)	E. coli (R)	MRSA (M)	S. epidermidis (M)	E. coli; also recorded: P. aeruginosa; also recorded: S. pneumoniae; also recorded: E. faecalis; also recorded: C. jeikeium; also recorded: C. jejuni	–	–
PF-404 (VLYFQATVV; Peptide with targeting and/or antimicrobial activity)	–	MRSA (M)	S. epidermidis (M)	S. epidermidis; also recorded: E. coli; also recorded: P. aeruginosa; also recorded: E. faecalis; also recorded: C. jeikeium; also recorded: C. jejuni	–	–
PF-405 (LVRIEVDDLEEWYERNFI; Peptide with targeting and/or antimicrobial activity)	–	MRSA (M)	–	S. epidermidis; also recorded: E. coli; also recorded: E. faecalis	–	–
PF-406 (YLEMNADYLSNMDIFDELWEKYLENNK; Peptide with targeting and/or antimicrobial activity)	–	MRSA (M)	S. epidermidis (C)	E. coli; also recorded: C. jejuni	–	–
PF-408 (YCVPLGNMGNMNNKIW; Peptide with targeting and/or antimicrobial activity)	–	MRSA (M)	S. epidermidis (M)	S. epidermidis and E. coli and P. aeruginosa and MRSA and E. faecalis and C. jeikeium and C. jejuni	–	–
PF-413 (TFAGSIKIGVPDLVHVTFNCKR; Peptide with targeting and/or antimicrobial activity)	E. coli (S)	MRSA (C)	S. epidermidis (C)	P. aeruginosa; also recorded: C. albicans; also recorded: C. jejuni	–	–
PF-414 (LLNKKLE; Peptide with targeting and/or antimicrobial activity)	–	–	–	E. coli; also recorded: C. albicans; also recorded: C. jeikeium	–	Organism, effect (microorganisms; S. pneumoniae): S. pneumoniae (H)
PF-416 (SKAGLYGKIERSDKRE; Peptide with targeting and/or antimicrobial activity)	–	–	–	S. pneumoniae; also recorded: C. jeikeium	–	Organism, effect (microorganisms; S. pneumoniae): S. pneumoniae (H)
PF-417 (DSYFRS; Peptide with targeting and/or antimicrobial activity)	–	MRSA (M)	S. epidermidis (M)	S. epidermidis; also recorded: C. jeikeium; also recorded: C. jejuni	–	Organism, effect (microorganisms; S. pneumoniae): S. pneumoniae (M)
PF-421 (KHCFEITDKTDVV; Peptide with targeting and/or antimicrobial activity)	–	–	–	C. jeikeium	–	Organism, effect (microorganisms; S. pneumoniae): S. pneumoniae (H)
PF-423 (AGKKERLLSFREQFLNKNKKK; Peptide with targeting and/or antimicrobial activity)	–	–	–	S. epidermidis; also recorded: M. luteus; also recorded: E. coli; also recorded: S. pneumoniae; also recorded: E. faecalis; also recorded: C. jeikeium	S. pneumoniae (H)	–
PF-424 (IAAFVTSRAFSDTVSPI; Peptide with targeting and/or antimicrobial activity)	–	–	–	S. epidermidis and C. albicans and MRSA	S. pneumoniae (H)	–
PF-425 (MMELVLKTIIGPIVVGVVLRIVDKWLNKDK; Peptide with targeting and/or antimicrobial activity)	–	–	–	S. epidermidis and M. luteus and E. coli and P. aeruginosa and C. albicans and MRSA and S. pneumoniae and C. jeikeium	S. pneumoniae (D)	Organism, effect (morphology, biofilm and growth disruption) (microorganisms; C. albicans): C. albicans (A); Organism, effect (morphology, biofilm and growth disruption) (microorganisms; C. jejuni): C. jejuni (D); Organism, effect (morphology, biofilm and growth disruption) (microorganisms; E. coli): E. coli (C); Organism, effect (morphology, biofilm and growth disruption) (microorganisms; E. faecalis): E. faecalis (D); Organism, effect (morphology, biofilm and growth disruption) (microorganisms; MRSA): MRSA (D); Organism, effect (morphology, biofilm and growth disruption) (microorganisms; P. aeruginosa): P. aeruginosa (A); Organism, effect (morphology, biofilm and growth disruption) (microorganisms; S. epidermidis): S. epidermidis (D)
PF-426 (MLQKYTQMISVTKCIITKNKKTQENVDAYN; Peptide with targeting and/or antimicrobial activity)	–	–	–	S. epidermidis and E. coli and P. aeruginosa and C. albicans and MRSA and S. pneumoniae and E. faecalis and C. jeikeium	S. pneumoniae (D)	Organism, effect (morphology, biofilm and growth disruption) (microorganisms; C. albicans): C. albicans (A); Organism, effect (morphology, biofilm and growth disruption) (microorganisms; C. jejuni): C. jejuni (D); Organism, effect (morphology, biofilm and growth disruption) (microorganisms; E. coli): E. coli (C); Organism, effect (morphology, biofilm and growth disruption) (microorganisms; E. faecalis): E. faecalis (D); Organism, effect (morphology, biofilm and growth disruption) (microorganisms; MRSA): MRSA (D); Organism, effect (morphology, biofilm and growth disruption) (microorganisms; S. epidermidis): S. epidermidis (D)
PF-427 (YVLEYHGLRATQDVDAFMAL; Peptide with targeting and/or antimicrobial activity)	–	–	–	M. luteus; also recorded: P. aeruginosa; also recorded: C. albicans; also recorded: C. jejuni	S. pneumoniae (R)	Organism, effect (morphology, biofilm and growth disruption) (microorganisms; E. coli): E. coli (C); Organism, effect (morphology, biofilm and growth disruption) (microorganisms; E. faecalis): E. faecalis (C); Organism, effect (morphology, biofilm and growth disruption) (microorganisms; MRSA): MRSA (C)
PF-428 (ENEESIF; Peptide with targeting and/or antimicrobial activity)	–	–	–	S. epidermidis; also recorded: C. albicans; also recorded: E. faecalis; also recorded: C. jeikeium	S. pneumoniae (H)	–
PF-429 (AATLICVGSGIMSSL; Peptide with targeting and/or antimicrobial activity)	–	–	–	S. epidermidis; also recorded: S. pneumoniae; also recorded: C. jeikeium	S. pneumoniae (M)	Organism, effect (morphology, biofilm and growth disruption) (microorganisms; E. faecalis): E. faecalis (C); Organism, effect (morphology, biofilm and growth disruption) (microorganisms; MRSA): MRSA (C); Organism, effect (morphology, biofilm and growth disruption) (microorganisms; S. epidermidis): S. epidermidis (C)
